# Experimental data taken from patent US7759362B2, “Quinolonecarboxylic acid compounds, preparation methods and pharmaceutical uses thereof” (Institut of Medicinal Biotechnology Chinese Academy of …, priority 2004, dated 2010).
# Assays:
# P. aeruginosa 17 = experiment: MIC, two-fold plate dilution method; type: cell-based; conditions: P. aeruginosa 17, Gram-negative; Muener-Hinton medium
# Text: (§1) . The pharmaceutically acceptable salts or hydrates thereof have the same antibacterial activity.
# (§2) Two-fold plate dilution method is used for determination of activity, with Muener-Hinton medium (DIFCO) as the culture medium and clinically isolated pathogenic strain, quality control strain and standard strain (provided by National Institute for the Control of Pharmaceutical and Biological Products) as test strains.
# K. pneumoniae 14 = experiment: MIC, two-fold plate dilution method; type: cell-based; conditions: K. pneumoniae 14, Gram-negative; Muener-Hinton medium
# Text: as §1, §2
# K. pneumoniae 7 = experiment: MIC, two-fold plate dilution method; type: cell-based; conditions: K. pneumoniae 7, Gram-negative; Muener-Hinton medium
# Text: as §1, §2
# E. coli ATTC 25922 = experiment: MIC, two-fold plate dilution method; type: cell-based; conditions: E. coli ATTC 25922, Gram-negative; Muener-Hinton medium
# Text: as §1, §2
# E. coli 26 = experiment: MIC, two-fold plate dilution method; type: cell-based; conditions: E. coli 26, Gram-negative; Muener-Hinton medium
# Text: as §1, §2
# S. pyogenes 26 = experiment: MIC, two-fold plate dilution method; type: cell-based; conditions: S. pyogenes 26, Gram-positive; Muener-Hinton medium
# Text: as §1, §2
# S. pneumoniae 70 = experiment: MIC, two-fold plate dilution method; type: cell-based; conditions: S. pneumoniae 70, Gram-positive; Muener-Hinton medium
# Text: as §1, §2
# S. pneumoniae 98 = experiment: MIC, two-fold plate dilution method; type: cell-based; conditions: S. pneumoniae 98, Gram-positive; Muener-Hinton medium
# Text: as §1, §2
# S. epidermidis 26069 = experiment: MIC, two-fold plate dilution method; type: cell-based; conditions: S. epidermidis 26069, Gram-positive; Muener-Hinton medium
# Text: as §1, §2
# Enterococcus 755 = experiment: MIC, two-fold plate dilution method; type: cell-based; conditions: Enterococcus 755, Gram-positive; Muener-Hinton medium
# Text: as §1, §2
# S. aureus ATTC 25923 = experiment: MIC, two-fold plate dilution method; type: cell-based; conditions: S. aureus ATTC 25923, Gram-positive; Muener-Hinton medium
# Text: as §2
# [1] = Acute oral toxicity in mice; conditions: mouse, in vivo, male mice, deaths after 7 days, Bliss program
# Procedure: Toxicity experiments are carried out on the compounds prepared in embodiment 11, 13 and 15 to determine the acute oral toxicity of the present compounds. Solutions of the three compounds in different concentrations are administered to male mice at a dosage of 0.1 mL/10 g body weight, then the number of dead mice after 7 days is recorded, and lethal dose 50% (LD50) is calculated for each compound by Bliss program.
# S. pneumoniae = conditions: compared with gatifloxacin; cited from earlier work
SMILES,MIC (P. aeruginosa 17) [µg/mL],MIC (K. pneumoniae 14) [µg/mL],MIC (K. pneumoniae 7),MIC (E. coli ATTC 25922) [µg/mL],MIC (E. coli 26) [µg/mL],MIC (S. pyogenes 26) [µg/mL],MIC (S. pneumoniae 70) [µg/mL],MIC (S. pneumoniae 98) [µg/mL],MIC (S. epidermidis 26069) [µg/mL],MIC (Enterococcus 755) [µg/mL],MIC (S. aureus ATTC 25923) [µg/mL],LD50 at 7 days [1] [mg/kg],in vitro activity against S. pneumoniae (in words) (S. pneumoniae)
"Cl.Nc1c(F)c(N2C[C@H]3CCCN[C@H]3C2)c(OC(F)F)c2c1c(=O)c(C(=O)O)cn2C1CC1 [Embodiment 18, 5-Amino-1-cyclopropyl-8-difluoromethoxyl-7-[(1R,6R)-2,8-diazabicyclo[4,3,0]nonane-8-yl]-6-fluoro-1,4-dihydro-4-oxoquinoline-3-carboxylic acid hydrochloride]",0.25,0.015,0.015 µg/mL,0.015,0.015,0.25,0.03,0.125,0.25,0.06,0.06,–,–
"O=C(O)c1cn(C2CC2)c2cc(N3CCNCC3)c(F)cc2c1=O [Ciprofloxacin, ciprofloxacin, reference compound]",–,–,0.015 g/mL,–,–,–,–,–,–,–,–,–,–
"Cl.O=C(O)c1cn(C2CC2)c2c(OC(F)F)c(N3C[C@H]4CCCN[C@H]4C3)c(F)cc2c1=O [Embodiment 14, 1-cyclopropyl-8-difluoromethoxyl-7-[(1R,6R)-2,8-diazabicyclo[4,3,0]nonane-8-yl]-6-fluoro-1,4-dihydro-4-oxoquinoline-3-carboxylic acid hydrochloride]",1,0.03,0.03 µg/mL,0.015,0.03,0.5,0.06,0.015,0.5,0.25,0.03,–,–
"Cl.O=C(O)c1cn(C2CC2)c2c(OC(F)F)c(N3C[C@@H]4CCCN[C@@H]4C3)c(F)cc2c1=O (relative stereo) [Embodiment 15, 1-Cyclopropyl-8-difluoromethoxyl-7-[cis-2,8-diazabicyclo[4,3,0]nonane-8-yl]-6-fluoro-1,4-dihydro-4-oxoquinoline-3-carboxylic acid hydrochloride]",0.5,0.03,0.03 µg/mL,0.25,0.03,0.25,0.06,0.125,0.5,0.25,0.125,> 4000,–
"Cl.Nc1c(F)c(N2C[C@@H]3CCCN[C@@H]3C2)c(OC(F)F)c2c1c(=O)c(C(=O)O)cn2C1CC1 [Embodiment 17, 5-amino-1-cyclopropyl-8-difluoromethoxyl-7-[(1S,6S)-2,8-diazabicyclo[4,3,0]nonane-8-yl]-6-fluoro-1,4-dihydro-4-oxoquinoline-3-carboxylic acid hydrochloride]",0.25,0.015,0.015 µg/mL,0.051,0.015,0.25,0.015,0.015,0.25,0.015,0.03,> 4000,–
"COc1c(N2C[C@@H]3CCCN[C@@H]3C2)c(F)cc2c(=O)c(C(=O)O)cn(C3CC3)c12 [Moxifloxacin, moxifloxacin, reference compound]",0.5,0.03,0.03 µg/mL,0.03,0.03,0.5,0.125,0.125,0.5,0.5,0.06,–,–
"Nc1c(F)c(N2C[C@@H]3CCCN[C@@H]3C2)c(OC(F)F)c2c1c(=O)c(C(=O)O)cn2C1CC1 (relative stereo) [Embodiment 21, 5-Amino-1-cyclopropyl-8-difluoromethoxyl-7-(cis-2,8-diazabicyclo[4,3,0]nonane-8-yl)-6-fluoro-1,4-dihydro-4-oxoquinoline-3-carboxylic acid]",0.25,0.015,0.015 µg/mL,< 0.007,< 0.007,0.25,0.06,0.03,0.25,0.25,0.03,–,–
C[C@H]1NCc2cc(-c3ccc4c(=O)c(C(=O)O)cn(C5CC5)c4c3OC(F)F)ccc21 [Embodiment T-3811],–,–,–,–,–,–,–,–,–,–,–,–,"enhanced in vitro activity against S. pneumoniae, even superior to gatifloxacin"
"Cl.O=C(O)c1cn(C2CC2)c2c(OC(F)F)c(N3C[C@@H]4CCCN[C@@H]4C3)c(F)cc2c1=O [Embodiment 13, 1-cyclopropyl-8-difluoromethoxyl-7-[(1S,6S)-2,8-diazabicyclo[4,3,0]nonane-8-yl]-6-fluoro-1,4-dihydro-4-oxoquinoline-3-carboxylic acid hydrochloride]",0.25,0.015,0.015 µg/mL,0.015,0.015,0.25,0.125,0.015,0.25,0.25,0.03,> 4000,–
